# Test results reported in patent publication US20240108641A1, “COMPOSITIONS FOR ORAL ADMINISTRATION OF ZOLEDRONIC ACID OR RELATED COMPOUNDS FOR TREATING DISEASE” (ANTECIP BIOVENTURES II LLC, priority 2012, published 2024).
# Assays:
# [1] = test system: health-related quality of life (RAND-36); experiment: randomized placebo-controlled trial in chronic low back pain with Modic changes, RAND-36 quality of life; format: in vivo, human; conditions: for RAND-36 Mental component, Unadjusted analyses Difference (95% CI) / RAND-36 Physical component, Unadjusted analyses Difference (95% CI) / Total RAND-36, Unadjusted analyses Difference (95% CI) / RAND-36 Mental component, Adjusted analyses Difference (95% CI) / RAND-36 Physical component, Adjusted analyses Difference (95% CI) / Total RAND-36, Adjusted analyses Difference (95% CI): ZA versus placebo; for RAND-36 Mental component, Adjusted analyses Difference (95% CI) / RAND-36 Physical component, Adjusted analyses Difference (95% CI) / Total RAND-36, Adjusted analyses Difference (95% CI): adjusted for baseline; for RAND-36 Mental component, Mean (SD) change / RAND-36 Mental component, Mean (SD) original values / RAND-36 Physical component, Mean (SD) change / RAND-36 Physical component, Mean (SD) original values / Total RAND-36, Mean (SD) change / Total RAND-36, Mean (SD) original values: single 5 mg IV infusion
# Method: A study was performed to evaluate the efficacy of a single intravenous infusion of 5 mg ZA in comparison with intravenous placebo infusion among patients with chronic low back pain (LBP) and Modic changes on MRI. This study was a double-blinded, randomized, placebo-controlled clinical trial in patients with low back pain (LBP). Patients were included in the study if they had low back symptoms for at least three months, an LBP of at least six (6) on a 10-cm Visual Analog Scale (VAS) or an Oswestry Disability Index (ODI) of at least 30%, and an M1, mixed M1/2 or M2 type change on MRI performed within six months at most prior to enrolment.
# After confirmation of eligibility patients were randomized to receive a single intravenous infusion of 5 mg zoledronic acid (n=20) or 100 ml saline as placebo (n=20) over a 15-minute period. Information on use of the concomitant medication and hospital admissions were recorded. Blood samples were taken for the assessment of safety, inflammatory mediators and markers of bone turnover at baseline, one month and one year.
# Clinical assessments were performed 14 days before enrolment (screening visit), and follow-up visits at one month and one year after the infusion. The primary outcome was the change in the intensity of LBP on VAS. Secondary outcomes included leg pain intensity, ODI, health-related quality of life assessed with RAND-36, patient-reported sick leaves and lumbar flexibility. These outcome measures were assessed at baseline and at each follow-up. Lumbar flexibility was evaluated using the fingers-to-floor and trunk side bending measures (in cm). The percentage of patients undergoing a 20% relative improvement, the proportion of patients reaching a VAS score of 40 or less in the primary outcome, and patient acceptable symptom state (PASS) were also assessed. Pain medication use was inquired about during the follow-up visits.
# [2] = phase 1 clinical trial, bioavailability and pharmacokinetics of the oral dosage form versus IV Zometa; format: in vivo, human
# Method: Dose amounts are based upon the weights of the molar equivalent amounts of the diacid form of zoledronic acid (e.g., the 50 mg oral dose contains about 71 mg of the disodium zoledronate tetrahydrate form). The dosage form had the composition shown in Table 3, and was coated with Opadry White, which as 3-5 wt % of the coated tablet. These dosage forms were free of bioavailability enhancing agents. For convenience, the dosage form described in Table 3 will be described in this Example as “the oral dosage form.”
# Each subject received 2 of the following 4 treatments: one unit of the oral dosage form for a 50 mg dose (“the 50 mg oral dose”), two units of the oral dosage form taken together for a 100 mg dose (“the 100 mg oral dose”), or three units of the oral dosage form taken together for a 150 mg dose (“the 150 mg oral dose”), or a 1 mg IV dose of zoledronic acid (Zometa®). Each treatment was separated by a wash-out period of approximately 14 days. Blood samples were collected for 72 hours post-dose to characterize zoledronic acid pharmacokinetics. Blood samples were collected pre-dose and 7 and 14-15 days post-dose to measure the effects of the oral disodium tetrahydrate form of zoledronic acid and IV zoledronic acid on biomarkers of bone resorption.
# All study medications which were orally administered were given with approximately 240 mL of water. Subjects remained upright for the first hour following study medication administration. Zoledronic acid IV infusion was at least 15 minutes in duration. All study medication was administered under fasting conditions.
# Each treatment was separated by a washout period of approximately 14 days. Blood samples were collected for 72 hours post-dose to characterize zoledronic acid pharmacokinetics. Blood samples were collected pre-dose and 7 and 14-15 days post-dose to measure the effects of the oral dosage form and IV zoledronic acid on serum CTx.
# [3] = test system: arthritis pain (mechanical hyperalgesia); experiment: rat complete Freund's adjuvant (CFA) model of arthritis pain; format: in vivo; conditions: oral administration; day 14 post CFA
# Method: The effect of orally administered zoledronic acid on arthritis pain was examined in the rat complete Freund's adjuvant (CFA) model of arthritis pain. In this model, injection of 100% complete Freund's adjuvant (CFA) in a 75 μL volume into the left hind paws is followed by a 10-14 day period to allow for the development of arthritis pain. Animals were orally administered vehicle (control), zoledronic acid 54 mg/m^2 (or 9 mg/kg), or zoledronic acid 360 mg/m^2 (or 60 mg/kg), divided in three equal daily doses on the first three days post CFA injection. Drug was dissolved in distilled water and prepared fresh daily. Animals were fasted prior to dosing.
# Arthritis pain (mechanical hyperalgesia) in the vehicle and drug-treated animals was evaluated on day 14 post CFA injection using a digital Randall-Selitto device (dRS; IITC Life Sciences, Woodland Hills, CA). Animals were placed in a restraint sling that suspended the animal, leaving the hind limbs available for testing. Paw compression threshold was measured by applying increasing pressure to the plantar surface of the hind paw with a dome-shaped tip placed between the 3rd and 4th metatarsus. Pressure was applied gradually over approximately 10 seconds. […]
# Reversal of arthritis pain in the ipsilateral (CFA-injected) paw was calculated according to the formula: […]
compound,measurement,setting,value
O=P(O)(O)C(O)(Cn1ccnc1)P(=O)(O)O [zoledronic acid],"RAND-36 Mental component, Unadjusted analyses Difference (95% CI)",[1]; 1 mo.,2.0 (−2 to 6)
same,"RAND-36 Physical component, Unadjusted analyses Difference (95% CI)",[1]; 1 mo.,0.3 (−4 to 5)
same,"Total RAND-36, Unadjusted analyses Difference (95% CI)",[1]; 1 mo.,1.2 (−3 to 5)
same,"RAND-36 Mental component, Adjusted analyses Difference (95% CI)",[1]; 1 mo.,1.6 (−2 to 5)
same,"RAND-36 Physical component, Adjusted analyses Difference (95% CI)",[1]; 1 mo.,1.3 (−3 to 6)
same,"Total RAND-36, Adjusted analyses Difference (95% CI)",[1]; 1 mo.,1.3 (−3 to 5)
same,"RAND-36 Mental component, Mean (SD) change",[1]; 1 mo.,1.0 (6.1)
same,"RAND-36 Mental component, Mean (SD) original values",[1]; 1 mo.,50 (9)
same,"RAND-36 Physical component, Mean (SD) change",[1]; 1 mo.,0.1 (8.6)
same,"RAND-36 Physical component, Mean (SD) original values",[1]; 1 mo.,52 (9)
same,"Total RAND-36, Mean (SD) change",[1]; 1 mo.,0.6 (6.4)
same,"Total RAND-36, Mean (SD) original values",[1]; 1 mo.,51 (8)
same,"RAND-36 Mental component, Unadjusted analyses Difference (95% CI)",[1]; 12 mos.,3.5 (−2 to 9)
same,"RAND-36 Physical component, Unadjusted analyses Difference (95% CI)",[1]; 12 mos.,0.7 (−5 to 6)
same,"Total RAND-36, Unadjusted analyses Difference (95% CI)",[1]; 12 mos.,2.1 (−3 to 7)
same,"RAND-36 Mental component, Adjusted analyses Difference (95% CI)",[1]; 12 mos.,2.7 (−2 to 7)
same,"RAND-36 Physical component, Adjusted analyses Difference (95% CI)",[1]; 12 mos.,2.1 (−3 to 7)
same,"Total RAND-36, Adjusted analyses Difference (95% CI)",[1]; 12 mos.,2.2 (−2 to 7)
same,"RAND-36 Mental component, Mean (SD) change",[1]; 12 mos.,1.8 (9.0)
same,"RAND-36 Mental component, Mean (SD) original values",[1]; 12 mos.,51 (9)
same,"RAND-36 Physical component, Mean (SD) change",[1]; 12 mos.,0.3 (10)
same,"RAND-36 Physical component, Mean (SD) original values",[1]; 12 mos.,52 (8)
same,"Total RAND-36, Mean (SD) change",[1]; 12 mos.,1.0 (8.7)
same,"Total RAND-36, Mean (SD) original values",[1]; 12 mos.,51 (8)
same,Sustained Plasma Factor,[2]; 1 mg IV,4.6
same,Sustained Plasma Factor,[2]; 50 mg oral dose,13.5
same,Sustained Plasma Factor Ratio (oral/IV),[2]; 50 mg oral dose versus 1 mg IV,2.9
same,Sustained Plasma Factor,[2]; 100 mg oral dose,11.7
same,Sustained Plasma Factor Ratio (oral/IV),[2]; 100 mg oral dose versus 1 mg IV,2.5
same,Sustained Plasma Factor,[2]; 150 mg oral dose,15.1
same,Sustained Plasma Factor Ratio (oral/IV),[2]; 150 mg oral dose versus 1 mg IV,3.3
same,arthritis pain thresholds compared to vehicle,[3],significantly improved
